Assay results from patent US10208089B2, “Modulation of complement activity” (priority 2014, dated 2019).

How the values were obtained:
[1] = system: primate C5 protein; experiment: Hemolysis assay with exogenous compound added to normal cynomolgus plasma; assay type: cell-based, cynomolgus monkey
[2] = system: primate C5 protein; experiment: Ex vivo hemolysis assay on plasma samples from the cynomolgus PK study; assay type: in vivo, cynomolgus monkey
Text: Also shown are changes in hemolytic activity (squares) at the same time points.

[3] = in vivo; settings: male, cynomolgus monkey, iv, 3 mg/kg
[4] = cynomolgus monkey, single 3 mg/kg IV
[5] = Pharmacokinetic studies in rat (IV and SC); settings: male rats, SC 30 mg/kg, combined plasma concentrations of R3152 and R3201
Method: Left: Male Sprague-Dawley rats (n=3) were injected intravenously at a single 2 mg/kg dose. Blood samples were collected at indicated time points, processed into plasma, and analyzed for the indicated compound by LC-MS. […] […] Blood samples were collected at indicated time points, processed into plasma, and analyzed for the indicated compound by LC-MS.
Blood samples were collected at indicated time points, processed into plasma, and analyzed for the indicated compound by LC-MS. […] Blood samples were collected at indicated time points, processed into plasma, and analyzed for the indicated compound by LC-MS.

[6] = target: T1, rat C5 (Rattus norvegicus, UniProt P08650); experiment: Ex vivo hemolysis assays in the rat study
T1 construct: from tissue; host or cells: plasma of dosed male rats
T1 sequence (P08650 19-1681): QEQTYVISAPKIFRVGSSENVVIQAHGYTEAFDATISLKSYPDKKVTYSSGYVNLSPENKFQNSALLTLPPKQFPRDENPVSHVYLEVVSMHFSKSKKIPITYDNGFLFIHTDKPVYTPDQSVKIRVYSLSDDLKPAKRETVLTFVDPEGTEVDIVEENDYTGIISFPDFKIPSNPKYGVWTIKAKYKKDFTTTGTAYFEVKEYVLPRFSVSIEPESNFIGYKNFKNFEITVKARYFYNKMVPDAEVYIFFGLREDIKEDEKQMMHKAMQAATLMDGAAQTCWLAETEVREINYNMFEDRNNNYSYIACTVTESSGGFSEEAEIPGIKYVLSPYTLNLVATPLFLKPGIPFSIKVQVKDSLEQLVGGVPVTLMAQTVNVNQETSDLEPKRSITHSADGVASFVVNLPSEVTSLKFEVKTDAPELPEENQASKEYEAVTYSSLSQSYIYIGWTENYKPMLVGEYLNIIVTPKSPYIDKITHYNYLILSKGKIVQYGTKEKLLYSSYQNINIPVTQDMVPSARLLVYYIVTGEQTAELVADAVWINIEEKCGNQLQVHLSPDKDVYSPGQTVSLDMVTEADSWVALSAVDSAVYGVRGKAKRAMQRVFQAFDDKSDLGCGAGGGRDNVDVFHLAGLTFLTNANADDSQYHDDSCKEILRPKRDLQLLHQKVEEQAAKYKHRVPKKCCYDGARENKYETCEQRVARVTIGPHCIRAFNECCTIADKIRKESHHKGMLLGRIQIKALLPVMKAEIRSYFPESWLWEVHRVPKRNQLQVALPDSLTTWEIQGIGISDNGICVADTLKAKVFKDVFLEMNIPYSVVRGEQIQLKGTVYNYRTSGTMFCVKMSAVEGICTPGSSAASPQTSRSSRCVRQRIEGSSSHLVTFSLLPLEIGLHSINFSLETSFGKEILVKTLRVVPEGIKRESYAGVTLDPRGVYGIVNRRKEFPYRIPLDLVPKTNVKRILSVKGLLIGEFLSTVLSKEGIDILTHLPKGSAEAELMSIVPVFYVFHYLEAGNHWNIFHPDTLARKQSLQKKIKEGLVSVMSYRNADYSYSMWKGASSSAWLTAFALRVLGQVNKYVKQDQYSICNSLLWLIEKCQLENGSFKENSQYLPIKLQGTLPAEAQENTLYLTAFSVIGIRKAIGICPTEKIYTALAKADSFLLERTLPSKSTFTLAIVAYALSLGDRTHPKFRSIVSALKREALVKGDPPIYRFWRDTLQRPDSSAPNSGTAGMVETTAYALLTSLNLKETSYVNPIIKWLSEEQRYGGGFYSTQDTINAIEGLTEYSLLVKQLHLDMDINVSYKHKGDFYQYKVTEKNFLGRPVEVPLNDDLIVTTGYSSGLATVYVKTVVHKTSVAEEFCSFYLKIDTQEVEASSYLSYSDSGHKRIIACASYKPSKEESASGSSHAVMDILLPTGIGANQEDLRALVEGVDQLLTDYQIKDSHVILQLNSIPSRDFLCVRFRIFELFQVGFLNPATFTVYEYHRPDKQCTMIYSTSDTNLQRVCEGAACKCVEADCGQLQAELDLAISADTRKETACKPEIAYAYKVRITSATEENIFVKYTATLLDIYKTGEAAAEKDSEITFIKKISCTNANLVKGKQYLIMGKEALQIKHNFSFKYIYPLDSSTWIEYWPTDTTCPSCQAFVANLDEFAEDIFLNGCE

Question: With `CCC[C@H](NC(=O)[C@@H](NC(=O)[C@@H]1CCCN1C(=O)[C@H](Cc1ccc(O)cc1)NC(=O)[C@H](CCC(=O)O)NC(=O)[C@H](Cc1c[nH]c2ncccc12)NC(=O)[C@H](Cc1ccc(O)cc1)NC(=O)[C@@H](NC(=O)[C@H](CC(=O)O)NC(=O)[C@@H]1CSCc2cccc(c2)CSC[C@H](NC(C)=O)C(=O)N[C@@H](C(C)C)C(=O)N[C@@H](CCC(=O)O)C(=O)N[C@@H](CCCNC(=N)N)C(=O)N[C@@H](Cc2ccccc2)C(=O)N1)C(C)(C)C)C1CCCCC1)C(N)=O` [Compound R3152, [mXylyl(1,6)]Ac-C-V-E-R-F-C-D-Tbg-Y-azaTrp-E-Y-P-Chg-Nvl-NH2] as the compound, how does the IC50 [1] read?
Answer: 2 to 20 ng/mL

Question: And the “binding to primate C5 protein (in words)” value ([2]; cynomolgus monkey, in vivo)?
Answer: binds with high affinity

Question: And the “time after dosing at which hemolytic activity returned to normal levels” value ([2]; cynomolgus monkey, single 3 mg/kg IV)?
Answer: 48 h

Question: What about the “plasma concentration with clear inhibition of complement-mediated hemolysis” value ([2]; cynomolgus plasma diluted 1:100, activated sheep red blood cells) of the same compound?
Answer: > 200 ng/mL

Question: What about the AUC(0-inf) [3] of the same compound?
Answer: 23300 ± 2120 ng·h/mL

Question: And the Vd [3]?
Answer: 1.49 ± 0.152 L/kg

Question: And the clearance [3]?
Answer: 2.15 mL/min/kg

Question: And the half-life [3]?
Answer: 10.9 ± 0.8 h

Question: And the level at 48 h [3]?
Answer: < 100 ng/mL

Question: What about the initial distribution phase [4] of the same compound?
Answer: < 1 h

Question: And the “time for which plasma drug levels were detectable” value [4]?
Answer: up to 48 hours

Question: What about the “bioavailability of dose, based on AUC” value [5] of the same compound?
Answer: approximately 65%

Question: And the “inhibitory activity in ex vivo hemolysis assays (in words)” value [6]?
Answer: very little inhibitory activity

Question: What about the “binding to rat C5 (in words)” value ([6]; in vivo) of the same compound?
Answer: do not bind
